Results published in patent publication US20110130371A1, “C-ring-substituted pregn-4-ene-21,17-carbolactones, and pharmaceutical preparations comprising the same” (BAYER SCHERING PHARMA AKTIENGESSELSCHAFT, priority 2008, published 2011).

Experiments:
[1] = system: orchidectomized rats; test: Antiandrogenic effect in orchidectomized rats (Hershberger); format: in vivo, rat; details: for Antiandrogenic effect (% inhibition): 1 mg/kg/day TP s.c. plus 10 mg/kg/day test substance for seven days, prostate weight; for antiandrogenic effect (in words): Hershberger
Experimental: This entails testing the suitability of the compounds for inhibiting the androgen-dependent growth of prostate, seminal vesicle and levator ani muscle in young, male, castrated rats receiving androgen replacement.
For this purpose, young rats are initially castrated. Eight days after the orchidectomy, the animals receive 1 mg/kg/day testosterone propionate (TP) s.c. alone or in combination with the test substances (10 mg/kg/day) for seven days.
On day 15 after the orchidectomy, the animals are sacrificed, and prostate, seminal vesicle and levator ani muscle are dissected out, and the relative wet weight is determined. The inhibited androgen-induced growth serves as a measure of the antiandrogenic effect of the test substance.

[2] = target: T1, human androgen receptor (hAR) (Homo sapiens, UniProt P10275); test: Antiandrogen transactivation assay (PC3 cells, hAR, MMTV-luciferase reporter); format: cell-based; details: for IC50: PC3 cells stably transfected with hAR and MMTV-luciferase, 16 hours incubation, read-out: IC50, antiandrogenic effect in the transactivation assay; for Efficacy: per cent of the maximum effect of reference antiandrogen hydroxyflutamide
T1 construct: expressed in transfected cells; host or cells: PC3 cells, stably transfected with hAR and an MMTV-luciferase reporter
T1 sequence (P10275 1-920): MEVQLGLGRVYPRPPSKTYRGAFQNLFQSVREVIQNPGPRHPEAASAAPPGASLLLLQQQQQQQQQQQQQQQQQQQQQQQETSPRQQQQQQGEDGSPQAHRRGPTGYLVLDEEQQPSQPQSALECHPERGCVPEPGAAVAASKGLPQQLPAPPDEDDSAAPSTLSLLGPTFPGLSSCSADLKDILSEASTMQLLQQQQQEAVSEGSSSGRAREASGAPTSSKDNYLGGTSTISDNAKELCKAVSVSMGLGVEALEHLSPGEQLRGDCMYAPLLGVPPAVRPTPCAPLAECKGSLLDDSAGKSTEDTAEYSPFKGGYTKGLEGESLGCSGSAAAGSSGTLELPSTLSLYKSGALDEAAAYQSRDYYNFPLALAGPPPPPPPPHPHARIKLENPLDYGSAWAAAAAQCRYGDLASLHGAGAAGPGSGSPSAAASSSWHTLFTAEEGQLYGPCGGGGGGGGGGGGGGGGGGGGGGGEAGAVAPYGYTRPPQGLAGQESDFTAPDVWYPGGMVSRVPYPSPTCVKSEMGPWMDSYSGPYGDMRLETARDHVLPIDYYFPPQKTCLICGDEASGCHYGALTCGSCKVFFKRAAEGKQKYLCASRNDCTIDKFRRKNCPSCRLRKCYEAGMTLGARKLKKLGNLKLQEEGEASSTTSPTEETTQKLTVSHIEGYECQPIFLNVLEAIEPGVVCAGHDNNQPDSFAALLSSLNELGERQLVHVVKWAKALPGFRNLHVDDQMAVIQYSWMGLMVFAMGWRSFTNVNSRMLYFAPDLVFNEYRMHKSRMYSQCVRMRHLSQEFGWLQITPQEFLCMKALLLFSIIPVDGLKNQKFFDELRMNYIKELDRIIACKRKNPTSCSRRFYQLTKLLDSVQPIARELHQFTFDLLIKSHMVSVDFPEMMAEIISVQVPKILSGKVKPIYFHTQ
Experimental: The antiandrogenic effect was carried out as described in Schneider et al. (Schneider K., Graf E., Irran E., Nicholson G., Stainsby F. M., Goodfellow M., Borden S. A., Keller S., Süssmuth R. D. and Fiedler H. P. (2008) Bendigoles A˜C, New Steroids from Gordonia australis Acta 2299, J. Antibiotics (Tokyo) 61 (6), 356-364).
The culture medium used for culturing cells used for the assay was RPMI (PAA, #E15-49) with 10% FCS, […] L-glutamine, 100 U/100 ug/ml penicillin/streptomycin. Reporter cell lines (PC3 cells stably transfected with human androgen receptor (hAR) and a reporter construct which comprises luciferase under the control of an androgen-responsive promoter (MMTV)) were grown at a density of 4×10^4 cells per well in white, opaque tissue culture plates with 96 wells in each (Perkin Elmer, #P12-106-017) and maintained in culture medium with 3% DCC-FCS (serum treated with activated carbon to remove interfering components present in the serum). The compounds to be investigated were added eight hours later, and the cells were incubated with the compounds for 16 hours. The experiments were carried out in triplicate. At the end of the incubation, the effector-containing medium was removed and replaced by lysis buffer.
After luciferase assay substrate (Promega, #E1501) had been added, the plates with the 96 wells were then inserted into a microplate luminometer (Pherastar, BMG labtech), and the luminescence was measured. The IC50 values were evaluated using software for calculating dose-activity relationships. The efficacy indicates the per cent of the maximum effect by comparison with the maximum effect of a reference antiandrogen (hydroxyflutamide).

[3] = system: ovariectomized rats; test: Modified pregnancy maintenance experiment with pharmacokinetic/pharmacodynamic model (AUC versus pregnancy maintenance); format: in vivo; details: rat, calculated from physiologically based PK model
Excerpt: In order to describe the difference in their progestational potency more precisely, in a modified pregnancy maintenance experiment blood samples were additionally taken at various times to determine pharmacokinetic parameters. The rats were pretreated in this case as described in the preceding experiment. A physiologically based pharmacokinetic model was developed using the programmes PK-SIM, version 4.0.1 (Bayer Technology Services, Leverkusen, Germany), GastroPlus version 5.2 (Simulations Plus, Inc., Lancaster, Calif., USA) and WinNonlin® Professional (version 5.2, Pharsight Corp., Mountain View, Calif., USA).
The relation was found between the AUC (area under the curve of the time-concentration profile) reached during the experiment and the measured pharmacological effect, i.e. the pregnancy maintenance achieved. The model thus permitted estimation of AUC50 values.
Based on the relation between systemic exposure and effect, the AUC in blood necessary to achieve 80% pregnancy maintenance in the rat model was calculated (Table 2).

[4] = system: ovariectomized rats; test: Progestational effect in ovariectomized rats (pregnancy maintenance test); format: in vivo, rat; details: ovariectomized pregnant rats, 5 μg/kg/d oestrone, treatment from day 8 p.c. for 6 days
Experimental: This entails investigating the ability of the compounds to compensate for the lack of progesterone in ovariectomized animals which no longer have their own progesterone synthesis and to maintain pregnancy (“pregnancy maintenance”).
Female animals weighing 200-230 g were mated. The animals were ovariectomized on day 8 post coitum (p.c.) and treated with 5 μg/kg/d oestrone. The compounds to be tested were given in various concentrations (3, 10, 30 mg/kg/d). Treatment was started on day 8 p.c. and continued for 6 days.
One day after the last treatment, the animals were autopsied. The degree of pregnancy maintenance was calculated by dividing the number of live fetuses by the number of detectable implantation sites. The presence of a beating heart was decisive for assessing a fetus as alive. No identifiable implantation sites (ovariectomized controls) was defined as 0% pregnancy maintenance.
The ED50 (concentration at which the half-maximum effect occurs) was determined as a measure of the progestational potency.

[5] = system: adrenalectomized rats; test: Antimineralocorticoid effect in adrenalectomized rats (diuresis experiment); format: in vivo, rat; details: for ED50, antimineralocorticoid effect in the diuresis experiment: adrenalectomized male rats, s.c., aldosterone 1 μg/kg/h, AUC of urinary Na/K ratio
Experimental: The antimineralocorticoid effect of the compounds was determined as described by Losert at al. (Losert, W., Casals-Stenzel, J., and Buse, M. (1985). Progestogens with antimineralocorticoid activity. Arzneimittelforschung 35, 459-471).
Male animals weighing 180-200 g were adrenalectomized 5 days before the experiment and received replacement with glucocorticoids. A diuresis experiment was carried out on day 5 after the adrenalectomy. A continuous infusion of isotonic NaCl solution plus 5% glucose was administered i.v. to the animals. Simultaneous administration of 1 μg/kg/h d-aldosterone achieved a constant mineralocorticoid effect, identifiable from sodium retention and kaliuresis. The test compounds were administered s.c. in various dosages (3, 10 and 30 mg/kg), and the abolition of the aldosterone-induced sodium retention indicates an antimineralocorticoid effect.
The animals were kept in metabolism cages and urine fractions were collected each hour. The sodium and potassium ion concentration in the urine was determined by a flame-photometry method, and the Na/K ratio was calculated therefrom. The Na/K ratios were plotted against time and the area under the curve [AUC] was determined. The ED50 (concentration at which the half-maximum effect occurs) was determined as a measure of the antimineralocorticoid potency.

[6] = system: IDI1 mRNA; test: Antiandrogenic effect in orchidectomized rats, gene expression in prostate tissue (TaqMan PCR); details: for antiandrogenic effect (in words): IDI1 gene expression, orchidectomized rats; for fold induction at 10 mg/kg: Rattus norvegicus, 24 h, read-out: x-fold induction factor of IDI1 mRNA after TP administration; for Antiandrogenic effect (% inhibition): inhibition of TP-induced IDI1 mRNA induction, prostate, 24 hours
Experimental: As a modification of the Hershberger assay described above, in addition animals were sacrificed 24 hours after the first treatment (1 mg/kg TP, 10 mg/kg test substance), and prostate tissue was shock-frozen immediately after the autopsy and then employed for mRNA isolation. A quantitative PCR method (TagMan) was used to investigate the induction (x-fold induction factor) of androgen-stimulated genes, inter alis of steroid biosynthesis (e.g. IDI1, NM 004508.2) as a measure of the androgenic effect of TP and the inhibition thereof by the compounds of the invention.

Compound | Antiandrogenic effect (% inhibition) [1] [%] | IC50 [2] [nM] | Efficacy [2] [per cent] | AUC (blood, calculated) in rats necessary for 80% pregnancy maintenance [3] | ED50, progestational effect in the pregnancy maintenance test [4] [mg/kg/day] | ED50, antimineralocorticoid effect in the diuresis experiment [5] [mg/kg/day] | antiandrogenic effect (in words) [6] | fold induction at 10 mg/kg [6] | Antiandrogenic effect (% inhibition) ([6]; 10 mg/kg test substance) [%] | antiandrogenic effect (in words) [1] | ED50 ([5]; Rattus norvegicus, sc) [mg/kg] | x-fold induction factor of IDI1 mRNA after TP administration ([6]; prostate tissue 24 hours after first treatment, 1 mg/kg TP, 10 mg/kg test substance)
C[C@]12CCC(=O)C=C1[C@@H]1C[C@@H]1C1C2=CC[C@@]2(C)C1[C@@H]1C[C@@H]1[C@@]21CCC(=O)O1 (stereo partly drawn) [Compound of Ex. 1, 6β,7β;15β,16β-Dimethylene-3-oxo-17-pregna-4,9(11)-diene-21,17β-carbolactone] | <0 | 240 | 19.3 | 210 (μg*h/L) | 2.9 | 5.9 | no antiandrogenic effect | 7.89 | <0 | – | – | –
C[C@]12CCC(=O)C=C1[C@@H]1C[C@@H]1C1C2CC[C@@]2(C)C1[C@@H]1C[C@@H]1[C@@]21CCC(=O)O1 (stereo partly drawn) [Drospirenone, 6β,7β-15β,16β-dimethylene-3-oxo-17-pregn-4-ene-21,17β-carbolactone] | 22.5 | – | – | 1346 (μg*h/L) | 10 | – | smaller but distinct antiandrogenic effect | – | 27 | smaller but distinct antiandrogenic effect | 6.7 | –
CC(=O)O[C@]1(C(C)=O)CC[C@H]2[C@@H]3C=C(Cl)C4=CC(=O)[C@@H]5C[C@@H]5[C@]4(C)[C@H]3CC[C@@]21C [Cyproterone acetate, cyproterone acetate] | 73.1 | – | – | – | – | – | strong antiandrogenic effect | 1.53 | 91 | strong antiandrogenic effect | – | –
CCC(=O)O[C@H]1CC[C@H]2[C@@H]3CCC4=CC(=O)CC[C@]4(C)[C@H]3CC[C@]12C [TP, testosterone propionate] | – | – | – | – | – | – | – | – | – | – | – | 7.07
C[C@]12CCC(=O)C=C1[C@@H]1C[C@@H]1C1C2[C@@H](F)C[C@@]2(C)C1[C@@H]1C[C@@H]1[C@@]21CCC(=O)O1 (single isomer, unassigned) [Compound of Ex. 2, 6β,7β;15β,16β-Dimethylene-11β-fluoro-3-oxo-17-pregn-4-ene-21,17β-carbolactone] | 3.8 | 160 | 31.9 | – | 3.4 | 12.36 | – | – | – | – | – | –
